Measurements: US9611223B2, “3-aryl-5-substituted-isoquinolin-1-one compounds and their therapeutic use” (INSTITUTE OF CANCER RESEARCH: ROYAL CANCER HOSPITAL (THE), priority 2013, dated 2017)
Where two headings read alike, the source gives them in different places.

What was measured:
DLD1 cells = assay: Long-Term Clonogenic Assay (DLD1 cells); format: cell-based; settings: Homo sapiens, DLD-1, 12-14 days, read-out: cell inhibitory SF50 (DLD1)
Description: Clonogenic Inhibition in DLD1 or HT55 Cells
In order to determine the efficacy of chronic dosing of putative TNKS inhibitors, long term clonogenic or ‘colony formation’ assays were carried out. This included the sparse seeding of cells in a 6-well dish followed by continuous dosing of cells over 12-14 days (depending on relative cell growth). Appropriate cell lines (DLD1 or HT55) were seeded at 500 cells/well in a 6-well dish in DMEM supplemented with FBS. After overnight incubation, cells were treated with the appropriate putative TNKS inhibitor at 10 μM, 3 μM, 1 μM, 0.30 μM, 0.1 μM and 0 μM at 0.2-1% final DMSO concentration (cell line dependent) in DMEM supplemented with 10% FBS (DLD1 cells were dosed in DMEM supplemented with 0.5% FBS). Dosages were carried out in triplicate. Cell media containing compound or DMSO only was replenished every 48 hours. On termination of the assay, plates were read with Cell Titre Glo reagent and luminescence measured on an appropriate plate reader.
The data was normalised to the DMSO control and was expressed as surviving fraction as a function of inhibitor dose. Dose response curves used to determine SF50 values were Log transformed and analysed by non-linear regression analysis (variable slope) using Prism (GraphPad Software, Inc).

SW620 cells = assay: Tumour Cell Inhibition Assay (SW620 cells); format: cell-based; settings: Homo sapiens, SW-620, 120 h, five day exposure
Description: Tumour Cell Inhibition in Colorectal Tumour Cells
In order to determine the efficacy of acute dosing of putative TNKS inhibitors, five day exposure cell viability assays were carried out. This included the sparse seeding of cells in a 96-well plate followed by continuous dosing of cells over a five day period.
Appropriate cell lines (HT55, COLO320DM and SW620) were seeded at 500 cells/well in a 96-well plate in MEM (HT55), RPMI (COLO320DM) or DMEM (SW620) supplemented with FBS. After overnight incubation, cells were treated with the appropriate putative TNKS inhibitor in 6 or 10 concentrations ranging from 0 μM to 10 μM at 0.2% final DMSO concentration in appropriate media supplemented with 10% or 0.5% FBS. Dosages were carried out in triplicate. Termination of the assay and measurement of cell viability was achieved by the use of Cell Titre Glo reagent and luminescence measurement on an appropriate plate reader.
Dose response curves used to determine SF50 values were Log transformed and analysed by non-linear regression analysis (variable slope) using Prism (GraphPad Software, Inc).

| IC50 (DLD1 cells) [µM] | IC50 (SW620 cells; read-out: cell inhibitory SF50 (SW620)) [µM] | IC50 (SW620 cells; replicate, read-out: cell inhibitory SF50 (SW620), replicate) [µM] | SMILES |
| --- | --- | --- | --- |
| 2.3 |  |  | CN1CCN(Cc2ccc(-c3cc4c(C#N)cccc4c(=O)[nH]3)cc2)CC1 [IQ-002, 3-[4-(4-Methyl-piperazin-1-ylmethyl)-phenyl]-1-oxo-1,2-dihydro-isoquinoline-5-carbonitrile] |
|  | 3 | 1.7 | CN(C)C1CCN(Cc2ccc(-c3cc4c(C#N)cccc4c(=O)[nH]3)cc2)CC1 [IQ-012] |
